According to patent US20180318197A1, “SOYASAPONIN-CONTAINING COMPOSITION FOR SKIN WHITENING” (AMOREPACIFIC CORPORATION, priority 2015, published 2018):

What was measured:
[1] = molecular target: T1, melanocyte-derived tyrosinase (melan-a cell extract) (Mus musculus, UniProt P11344); assay: Cell extract tyrosinase inhibitory activity (DOPA to dopachrome colorimetric reaction); assay type: biochemical; details: pH 6.8, substrate DOPA, absorbance at 475 nm
T1 construct: melan-a cell extract mixture; endogenous in cells; host or cells: melan-a cells (cell extract)
T1 sequence (P11344 19-533): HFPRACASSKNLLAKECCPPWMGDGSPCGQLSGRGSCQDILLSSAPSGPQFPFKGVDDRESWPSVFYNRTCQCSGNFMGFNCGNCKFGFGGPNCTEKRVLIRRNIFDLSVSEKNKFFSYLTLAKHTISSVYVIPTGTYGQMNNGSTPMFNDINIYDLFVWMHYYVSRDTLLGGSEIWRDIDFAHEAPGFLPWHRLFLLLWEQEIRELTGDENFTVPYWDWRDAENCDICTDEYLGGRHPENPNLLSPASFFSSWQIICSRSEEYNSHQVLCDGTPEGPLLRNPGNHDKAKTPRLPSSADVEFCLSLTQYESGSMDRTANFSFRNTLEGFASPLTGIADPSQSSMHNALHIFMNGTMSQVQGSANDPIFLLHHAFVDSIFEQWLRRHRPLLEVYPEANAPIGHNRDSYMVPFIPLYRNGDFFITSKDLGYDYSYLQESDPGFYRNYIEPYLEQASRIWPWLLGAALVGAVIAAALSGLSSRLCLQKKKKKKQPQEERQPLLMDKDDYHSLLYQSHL
Description: Tyrosinase is an important enzyme that regulates the first step that is performed to produce melanin in the process of pigmentation, and tyrosinase inhibitory activity is known to be an important efficacy mechanism for whitening. Therefore, in this test example, the ability of soyasaponin to inhibit the activity of tyrosinase was evaluated using a method for inhibiting the activity of cell extract tyrosinase. The method for evaluating the cell extract tyrosinase inhibitory activity is based on a phenomenon that melanocyte-derived tyrosinase causes a colorimeteric reaction by allowing substrate DOPA (3,4-dihydroxyphenylalanine; colorless) to form dopacrome (reddish brown).
Specific experimental methods are as follows. Kojic acid as a positive control and soyasaponin Aa as an evaluation material were prepared by concentrating four times the concentration to be evaluated. Then, the reaction mixture (pH 6.8, 0.1M potassium phosphate buffer, melan-a cell extract mixture) was prepared in a 96 well plate. Since there may be colors depending on the evaluation material, a reaction mixture containing no cell extract liquid was made into a vehicle for background removal. […] Absorbance was measured at 475 nm using an ELISA reader (Synergy2, BioTek, USA) at intervals of 10 minutes until sufficient colorimeteric reaction had occurred.

[2] = test system: Murine melanoma (B16) cells; assay: Evaluation of the degree of melanin production inhibition in α-MSH-stimulated B16 cells; assay type: cell-based; details: B16 cells with α-MSH; 12.5, 25, 50 or 100 μM soyasaponin Aa; 3 days; absorbance at 490 nm
Description: Murine melanoma (B16) cells purchased from the Korean Cell Line Bank were seeded into each well of a 12-well plate (5×10^4 cells/well) in DMEM (Dulbecco's modified eagle's medium) containing FBS (fetal calf serum) or a medium having growth rates equivalent to or higher than those in the DMEM. The cells were cultured at 37° C. with 5% CO2 until they reached about 80% confluency. After cultivation, the medium was removed and samples were replaced in medium diluted with 12.5, 25, 50 or 100 μM of soyasaponin Aa, or 100 ppm (corresponding to 700 μM) of kojic acid, and then cultured at 37° C. with 5% CO2 for 3 days. At this time, α-MSH (melanin stimulation hormone), which is a substance that allows B16 cells to better form melanin during cultivation, was included together in the medium of the other treatment groups except for the untreated control group. […] The concentration range of the samples was determined through toxicity tests. […] The obtained solution was measured for the absorbance at 490 nm using an ELISA reader (Synergy 2, BioTek. USA), and the amount of protein was determined by the Bradford assay, and then the amount of melanin per constant number of cells or the amount of melanin per constant amount of protein was estimated. […]

CC(=O)O[C@@H]1[C@@H](OC(C)=O)[C@H](O[C@@H]2[C@@H](O)[C@H](O[C@@H]3[C@H](O)C(C)(C)C[C@H]4C5=CC[C@@H]6[C@@]7(C)CC[C@H](O[C@@H]8O[C@H](C(=O)O)[C@@H](O)[C@H](O)[C@H]8O[C@@H]8O[C@H](CO)[C@H](O)[C@H](O)[C@H]8O[C@@H]8O[C@H](CO)[C@@H](O)[C@H](O)[C@H]8O)[C@](C)(CO)[C@@H]7CC[C@@]6(C)[C@]5(C)CC[C@@]34C)OC[C@@H]2O)OC[C@H]1OC(C)=O [soyasaponin Aa]
activity of tyrosinase (FIG. 5) [1]: effectively inhibited | synthesis of melanin (intracellular FIG. 3 and extracellular FIG. 4) [2]: effectively inhibited
